Values of other authors in patent US5480905A, “Benzodioxane derivatives” (Chugai Seiyaku Kabushiki Kaisha, priority 1991, dated 1996).
“Also recorded” adds a separate entry of the source.

Experiments:
[1] = in vivo; cited from earlier work
[2] = system: intracerebral serotonin 2 receptor; details: continuous administration; cited from earlier work

SMILES | Antianxiety/antidepressant action (words, background) [1] | Side effects (words, background) [1] | intracerebral serotonin 2 receptor (words, background) [2]
CC1(C)CC(=O)N(CCCCN2CCN(c3ncccn3)CC2)C(=O)C1 [Gepirone] | only weak antidepressant and antianxiety effects; also recorded: both antianxiety and antidepressant effects | either lower ultromotivity (probably due to the dopamine antagonistic action) or serotonin syndrome | 
O=C1c2ccccc2S(=O)(=O)N1CCCCN1CCN(c2ncccn2)CC1 [Ipsapirone] | only weak antidepressant and antianxiety effects; also recorded: both antianxiety and antidepressant effects | either lower ultromotivity (probably due to the dopamine antagonistic action) or serotonin syndrome | decrease in the intracerebral serotonin 2 receptor
